# Key:
# [1] = target: Kelch domain of human KEAP1 (321-624 aa) (Homo sapiens (Human), UniProt Q14145); assay: KEAP1 KELCH ThermoFluor binding assay; conditions: KEAP Kelch […], 1,8-ANS, pH 7.0, average of results obtained, read-out: Tf Kd;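 also: Ligand-induced melting temperature shift of E. coli-expressed KEAP1 Kelch protein, Kd estimated from concentration-response curves of ΔTm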
# [2] = tested on: Glo-Response ARE-luc2P HEK293 cell line; assay: ARE luciferase reporter cell-based assay; conditions: Homo sapiens, HEK293, 24 h, average of results obtained;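 also: luciferase signal tracks Nrf2 activation of the ARE once compounds disrupt KEAP1-Nrf2 binding, read with One-Glo reagent, DMSO serving as low control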
# Chain of Kelch domain of human KEAP1 (321-624 aa) (Q14145 321-624): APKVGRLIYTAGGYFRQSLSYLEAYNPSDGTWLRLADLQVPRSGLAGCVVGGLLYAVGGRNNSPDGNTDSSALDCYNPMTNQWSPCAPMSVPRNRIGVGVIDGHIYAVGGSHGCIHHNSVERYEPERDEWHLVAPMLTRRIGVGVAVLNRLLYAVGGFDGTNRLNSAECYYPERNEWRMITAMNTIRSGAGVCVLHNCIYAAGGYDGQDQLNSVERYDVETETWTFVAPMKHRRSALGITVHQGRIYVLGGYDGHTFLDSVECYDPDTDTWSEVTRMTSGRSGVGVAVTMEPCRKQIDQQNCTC
SMILES,Kd [1] [nM],EC50 [2] [nM]
"Cc1cnc2c(c1)S(=O)(=O)N(Cc1cc([C@@H](c3ccn4c(C5CC5)nnc4c3C)C(C)(C)C(=O)O)ccc1C)CC1(COC1)O2 (single isomer, unassigned) [Example 622, (*S)-3-(3-Cyclopropyl-8-methyl-[1,2,4]triazolo[4,3-a]pyridin-7-yl)-2,2-dimethyl-3-(4-methyl-3-((8′-methyl-1′,1′-dioxidospiro[oxetane-3,4′-pyrido[2,3-b][1,4,5]oxathiazepin]-2′(3′H)-yl)methyl)phenyl)propanoic Acid]",2530,3230
"Cc1cnc2c(c1)S(=O)(=O)N(Cc1cc([C@@H](c3ccc4c(nnn4C4CC4)c3C)C(C)(C)C(=O)O)cnc1C)CC1(COC1)O2 (single isomer, unassigned) [Example 623, (*R)-3-(1-Cyclopropyl-4-methyl-1H-benzo[d][1,2,3]triazol-5-yl)-2,2-dimethyl-3-(6-methyl-5-((8′-methyl-1′,1′-dioxidospiro[oxetane-3,4′-pyrido[2,3-b][1,4,5]]oxathiazepin]-2′(3′H)-yl)methyl)pyridine-3-yl)propanoic Acid]",< 1,7.5
"Cc1cnc2c(c1)S(=O)(=O)N(Cc1cc([C@H](c3ccc4c(nnn4C4CC4)c3C)C(C)(C)C(=O)O)cnc1C)CC1(COC1)O2 (single isomer, unassigned) [Example 624, (*S)-3-(1-Cyclopropyl-4-methyl-1H-benzo[d][1,2,3]triazol-5-yl)-2,2-dimethyl-3-(6-methyl-5-((8′-methyl-1′,1′-dioxidospiro[oxetane-3,4′-pyrido[2,3-b][1,4,5]]oxathiazepin]-2′(3′H)-yl)methyl)pyridine-3-yl)propanoic Acid]",18400,3660
"Cc1cc2c(nc1OCCN1CCCC1)OC1(CC1)CN(Cc1cc([C@@H](c3ccc4c(nnn4C4CC4)c3C)C(C)(C)C(=O)O)cnc1C)S2(=O)=O (single isomer, unassigned) [Example 625, (*R)-3-(1-Cyclopropyl-4-methyl-1H-benzo[d][1,2,3]triazol-5-yl)-2,2-dimethyl-3-(6-methyl-5-((8′-methyl-1′,1′-dioxido-7′-(2-(pyrrolidine-1-yl)ethoxy)spiro[cyclopropane-1,4′-pyrido[2,3-b][1,4,5]]oxathiazepin]-2′(3′H)-yl)methyl)pyridine-3-yl)propanoic Acid]",< 1,70.6
"Cc1cnc2c(c1)S(=O)(=O)N(Cc1nc([C@H](c3ccn4c(C(F)F)nnc4c3C)C(C)(C)C(=O)O)ccc1C)CC1(COC1)O2 (single isomer, unassigned) [Example 626, (*R)-3-(3-(Difluoromethyl)-8-methyl-[1,2,4]triazolo[4,3-a]pyridin-7-yl)-2,2-dimethyl-3-(5-methyl-6-((8′-methyl-1′,1′-dioxidospiro[oxetane-3,4′-pyrido[2,3-b][1,4,5]oxathiazepin]-2′(3′H)-yl)methyl)pyridin-2-yl)propanoic Acid]",2980,229
"Cc1cnc2c(c1)S(=O)(=O)N(Cc1nc([C@@H](c3ccn4c(C(F)F)nnc4c3C)C(C)(C)C(=O)O)ccc1C)CC1(COC1)O2 (single isomer, unassigned) [Example 627, (*S)-3-(3-(Difluoromethyl)-8-methyl-[1,2,4]triazolo[4,3-a]pyridin-7-yl)-2,2-dimethyl-3-(5-methyl-6-((8′-methyl-1′,1′-dioxidospiro[oxetane-3,4′-pyrido[2,3-b][1,4,5]oxathiazepin]-2′(3′H)-yl)methyl)pyridin-2-yl)propanoic Acid]",< 1,1.35

# Reference: patent US10947252B2, “Inhibitors of KEAP1-Nrf2 protein-protein interaction” (Janssen Pharmaceutica NV, priority 2018, dated 2021)
